Laboratory results reported in patent US9321776B2, “Isochromene derivatives as phoshoinositide 3-kinases inhibitors” (CHIESI FARMACEUTICI S.p.A., priority 2013, dated 2016).
pIC50: −log10 of the molar value. Where a name gives a salt, the structure may show the parent alone.

target: T1, PI3Kδ (Homo sapiens, UniProt O00329); experiment: PI3K enzyme inhibitory activity in the cell free assay (ADP-Glo Kinase Assay); type: biochemical; settings: human recombinant PI3Kδ, ATP 80 μM; read-out: PI3K delta inhibition
T1 construct: purchased Millipore Ltd (Billerica, Mass.)
T1 sequence (O00329 1-1044): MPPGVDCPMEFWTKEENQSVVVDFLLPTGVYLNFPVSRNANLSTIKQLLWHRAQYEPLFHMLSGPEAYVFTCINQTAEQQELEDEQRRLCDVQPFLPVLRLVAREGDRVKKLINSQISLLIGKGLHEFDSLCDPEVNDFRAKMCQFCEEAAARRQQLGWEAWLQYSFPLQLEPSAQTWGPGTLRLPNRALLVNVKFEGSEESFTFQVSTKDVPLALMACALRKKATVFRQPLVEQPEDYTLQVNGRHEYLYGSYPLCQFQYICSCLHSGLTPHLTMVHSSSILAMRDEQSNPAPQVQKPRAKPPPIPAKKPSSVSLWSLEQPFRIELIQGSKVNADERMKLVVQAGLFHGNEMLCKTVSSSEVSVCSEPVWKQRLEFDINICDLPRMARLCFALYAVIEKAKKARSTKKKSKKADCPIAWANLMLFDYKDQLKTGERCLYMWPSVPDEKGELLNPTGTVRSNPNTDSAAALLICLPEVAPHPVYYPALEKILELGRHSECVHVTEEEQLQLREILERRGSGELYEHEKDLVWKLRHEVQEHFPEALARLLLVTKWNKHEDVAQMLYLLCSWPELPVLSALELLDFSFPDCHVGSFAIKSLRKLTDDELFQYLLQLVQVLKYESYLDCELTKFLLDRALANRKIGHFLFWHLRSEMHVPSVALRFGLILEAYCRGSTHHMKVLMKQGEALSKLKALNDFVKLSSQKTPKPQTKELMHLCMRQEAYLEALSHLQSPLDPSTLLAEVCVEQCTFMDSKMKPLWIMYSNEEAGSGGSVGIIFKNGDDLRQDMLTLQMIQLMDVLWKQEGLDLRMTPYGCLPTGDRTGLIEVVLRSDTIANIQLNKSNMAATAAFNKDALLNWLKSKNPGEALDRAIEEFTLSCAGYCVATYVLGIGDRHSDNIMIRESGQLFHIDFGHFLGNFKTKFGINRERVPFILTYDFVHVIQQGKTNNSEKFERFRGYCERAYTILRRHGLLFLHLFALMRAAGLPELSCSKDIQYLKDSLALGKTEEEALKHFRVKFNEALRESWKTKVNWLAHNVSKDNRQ

pIC50 | Structure (SMILES)
6.00 to 8.00 | CC(c1oc(=O)c2ccccc2c1-c1ccccc1)n1nc(-c2cncc(O)n2)c2c(N)ncnc21 (stereo not drawn) [Example 90, 3-(1-(4-amino-3-(6-hydroxypyrazin-2-yl)-1H-pyrazolo[3,4-d]pyrimidin-1-yl)ethyl)-4-phenyl-1H-isochromen-1-one]
< 6.00 | CC(c1oc(=O)c2ccccc2c1-c1ccc(CCCN(C)C)cc1)n1nc(-c2cc(O)cc(F)c2)c2c(N)ncnc21 (single isomer, unassigned) [Example 138a, 3-(1-(4-amino-3-(3-fluoro-5-hydroxyphenyl)-1H-pyrazolo[3,4-d]pyrimidin-1-yl)ethyl)-4-(4-(3-(dimethylamino)propyl)phenyl)-1H-isochromen-1-one single enantiomers]
6.00 to 8.00 | Cc1cc(-c2c(C(C)n3ncc4c(N)ncnc43)oc(=O)c3ccccc23)ccn1 (stereo not drawn) [Example 19, 3-(1-(4-Amino-1H-pyrazolo[3,4-d]pyrimidin-1-yl)ethyl)-4-(2-methylpyridin-4-yl)-1H-isochromen-1-one]
6.00 to 8.00 | CC(c1oc(=O)c2ccccc2c1-c1ccccc1)n1nc(-c2cncc(C(F)(F)F)c2)c2c(N)ncnc21 (stereo not drawn) [Example 100, 3-(1-(4-amino-3-(5-(trifluoromethyl)pyridin-3-yl)-1H-pyrazolo[3,4-d]pyrimidin-1-yl)ethyl)-4-phenyl-1H-isochromen-1-one]
6.00 to 8.00 | CC(c1oc(=O)c2ccccc2c1-c1ccccc1)n1nc(-c2ccc3[nH]nc(N)c3c2)c2c(N)ncnc21 (stereo not drawn) [Example 113, 3-(1-(4-amino-3-(3-amino-1H-indazol-5-yl)-1H-pyrazolo[3,4-d]pyrimidin-1-yl)ethyl)-4-phenyl-1H-isochromen-1-one]
6.00 to 8.00 | CC(c1oc(=O)c2ccccc2c1-c1ccccc1)n1nc(-c2cnc(O)nc2)c2c(N)ncnc21 (stereo not drawn) [Example 56, 3-(1-(4-amino-3-(2-hydroxypyrimidin-5-yl)-1H-pyrazolo[3,4-d]pyrimidin-1-yl)ethyl)-4-phenyl-1H-isochromen-1-one]
< 6.00 | CC(c1oc(=O)c2ccccc2c1-c1ccc(CN2CCNCC2)cc1)n1ncc2c(N)ncnc21 (stereo not drawn) [Example 127, 3-(1-(4-amino-1H-pyrazolo[3,4-d]pyrimidin-1-yl)ethyl)-4-(4-(piperazin-1-ylmethyl)phenyl)-1H-isochromen-1-one hydrochloride]
6.00 to 8.00 | CC(Nc1ncnc2sccc12)c1oc(=O)c2ccccc2c1-c1ccccc1 (stereo not drawn) [Example 108, 4-phenyl-3-(1-(thieno[2,3-d]pyrimidin-4-ylamino)ethyl)-1H-isochromen-1-one]
6.00 to 8.00 | CC(c1oc(=O)c2ccccc2c1-c1cccc(CN(C)C)c1)n1nc(-c2cc(O)cc(F)c2)c2c(N)ncnc21 (single isomer, unassigned) [Example 67b, 3-(1-(4-amino-3-(3-fluoro-5-hydroxyphenyl)-1H-pyrazolo[3,4-d]pyrimidin-1-yl)ethyl)-4-(3-((dimethylamino)methyl)phenyl)-1H-isochromen-1-one]
6.00 to 8.00 | CC(c1oc(=O)c2ccccc2c1-c1ccccc1)n1nc(-c2cncc(S(C)(=O)=O)c2)c2c(N)ncnc21 (stereo not drawn) [Example 96, 3-(1-(4-amino-3-(5-(methylsulfonyl)pyridin-3-yl)-1H-pyrazolo[3,4-d]pyrimidin-1-yl)ethyl)-4-phenyl-1H-isochromen-1-one]
6.00 to 8.00 | CC(c1oc(=O)c2ccccc2c1-c1ccccc1)n1nc(-c2cc(O)cc(S(F)(F)(F)(F)F)c2)c2c(N)ncnc21 (stereo not drawn) [Example 101, 3-(1-(4-amino-3-(5-hydroxy-3-sulfurpentafluoride)-1H-pyrazolo[3,4-d]pyrimidin-1-yl)ethyl)-4-phenyl-1H-isochromen-1-one]
6.00 to 8.00 | CC(c1oc(=O)c2ccccc2c1-c1ccc(CN2CCN(CCO)CC2)s1)n1nc(-c2cc(O)cc(F)c2)c2c(N)ncnc21 (single isomer, unassigned) [Example 76a, 3-(1-(4-amino-3-(3-fluoro-5-hydroxyphenyl)-1H-pyrazolo[3,4-d]pyrimidin-1-yl)ethyl)-4-(5-((4-(2-hydroxyethyl)piperazin-1-yl)methyl)thiophen-2-yl)-1H-isochromen-1-one hydrochloride]
